Results: patent publication US20230132973A1, “DIHYDRO-SPIRO[INDOLINE-3:1'-iSOQUINOLIN]-2-ONES AS ANTIMALARIAL AGENTS” (The University of Buea, priority 2020, published 2023)
“Also recorded” adds a separate entry of the source. Where two headings read alike, the source gives them in different places.

How the values were obtained:
[1] = tested on: Human Liposarcoma (SW872) cells; experiment: MTT cell proliferation (cytotoxicity) assay, SW872 cells; assay type: cell-based
Protocol: By principle, the soluble MTT is reduced to an insoluble colored formazan product by mitochondrial succinate dehydrogenase in viable cells. Normal African Green Monkey Kidney Epithelial (Vero) and the Human Liposarcoma (SW872) cells were maintained in MEM supplemented with 10% FBS, 1% Glutamine and 1% penicillin-streptomycin. Confluent cells were trypsinized and seeded at a density of 2500 cells/well (total volume 90 μL) in 96-well plates and incubated for 24 h prior to drug treatment. Two-fold serial dilutions of the compounds (100-0.0488 μM) were added to the plates and incubated under humidified conditions at 37° C. for 48 h. Absorbance of the formed formazan product was measured at 550 nm wavelength using a SUNRISE microtiter plate reader. […] Selectivity indices (SI=CC50/EC50) were calculated as an indication of toxicity relative to the observed antiplasmodial activity.

[2] = tested on: Malaria parasites (ring-stage parasitized erythrocytes); experiment: Drug-combination (drug-drug interaction) studies, SYBR-Green I; assay type: cell-based, Plasmodium falciparum
Protocol: In view of the overlapping modes of action between the hybrids and some known antimalarial drugs in terms of targeted cellular processes, we investigated the interaction between these compounds at variable combination ratios. Malaria parasites were continuously cultured and synchronized as earlier described prior to the assay.
Briefly, two-fold drug dilutions were prepared using a variable potency ratio drug combination approach, starting at 5EC50A: 0EC50B to 0EC50A: 5EC50B in serum-free medium, where A and B represent the different partner molecules.
The test was run for 72 h and terminated when the untreated parasites were at the early trophozoite stage of the second cycle. Parasite viability was assessed by the SYBR-Green I fluorescence-based assay as earlier described. Dose-response curves and EC50 values of each combination and drug alone were obtained using GraphPad Prism v.5.0 and Microsoft Excel was used to calculate mean EC50 values and the standard error of the mean.

[3] = tested on: P. chabaudi-infected mice; experiment: Peter's four-day suppressive test (chemosuppressive activity); assay type: in vivo, Swiss albino mice
Protocol: Following the encouraging in vitro antiplasmodial activities and cytotoxicity profiles reported above, as well as the ADMET properties of the primary and secondary hits identified in this study, studies were carried out to assess the in vivo efficacy of these compounds in laboratory mice. Chemosuppressive potentials were assessed using the Peter's four-day test whereas the ability of each compound to cure an established plasmodial infection was determined using the Rane's test. To assess the in vivo chemosuppressive potential of the compounds, groups of P. chabaudi-infected mice were treated by ip injection for 3 days following infection using fixed doses of 0.03, 0.3, 3, 10, or 30 mg/kg for each compound. The percent suppression of parasite growth in treated groups was calculated relative to the control group and the growth inhibition curves plotted.
Eight-week old male Swiss albino mice weighing approximately 23±3 g were housed in cages and maintained in a well-ventilated room under standard environmental conditions of temperature at 22-24° C., under a 12 h dark-light cycle, with food and water provided ad libitum.
The animals were allowed one week acclimation before commencement of the study. Three (3) mice were infected with stocked blood containing Plasmodium chabaudi parasites and used as donors. In brief, frozen blood containing the sulfadoxine/pyrimethamine resistant P. c. chabaudi (AS(50S/P) parasites was thawed and about 200 μL parasites were injected intra-peritoneally (i.p) into each of the three mice and parasitemia monitored through blood smear until a 20% threshold was reached. These infected animals then served as donors to the experimental animals. Ethical approval for the study was obtained from the University of Douala Institutional Review Board (N^oIEC-UD/1146/09/2017/A).
In vivo efficacies were conducted following a modification of the Peter's four-day suppressive test as previously described (Lee et al., 2014, Tarkang et al., 2014). Briefly, following parasite passage in donor mice, the mice were euthanized using diethyl ether and P. c. chabaudi infected blood was obtained by cardiac puncture and placed into heparinized tubes. The blood was then diluted with phosphate buffered saline (PBS) and immediately used to infect the experimental mice. Mice were randomly divided into seven (7) groups of 3 animals and each mouse was injected with 1×10^7 infected erythrocytes intraperitoneally (Day 0). The mice were kept for 24 hours to establish infection and Giemsa thin blood smears were prepared to quantify parasites (Day 1). Thereafter, groups 1, 2, 3, 4 and 5 were treated with compounds dissolved in 1×PBS, intraperitoneally at dosages of 30, 10, 3, 0.3 and 0.03 mg/kg body weight, respectively, while groups 6 and 7 were treated with vehicle or chloroquine at 10 mg/kg, respectively for three consecutive days (Day 1-Day 3). Twenty-four (24) and ninety-six (96) hours post-infection, thin blood smears were prepared from each animal with blood obtained from the tail vein, fixed in methanol and stained with 10% Giemsa.
Parasitemia was determined by light microscopy using a 100× objective lens and the following equation: […]
Average percentage chemosuppression was calculated as
Where A is mean parasitemia in negative control and B is mean parasitemia in test group

[4] = tested on: hemoglobin metabolism in P. falciparum ring and trophozoite stage parasites; experiment: Effect on hemoglobin degradation (intraparasitic hemoglobin content); assay type: cell-based, Plasmodium falciparum; conditions: 10 μM, 24 h, relative to E64-treated cultures; listed as (±)-moxiquindole
Protocol: Owing to the fact that the DSIIQs are constructed from the THIQ pharmacophore of naphthylisoquinolines, which appear to target proteases involved in hemoglobin degradation, we assessed the effect of this DSIIQ on hemoglobin metabolism. Briefly, tightly synchronized ring and trophozoite stage parasites were treated with test compounds for 24 h followed by parasite isolation and quantification of the intraparasitic hemoglobin contents.
To investigate drug effects on hemoglobin degradation, early ring and mid-trophozoite stage parasites (1.5% hematocrit, 5% parasitemia) were co-cultured with the test compounds or experimental controls (0.1% DMSO, chloroquine, artemisinin NITD609 and E64) at a final concentration of 10 μM. The cultures were incubated at 37° C. and 5% CO2 for 24 h. Following incubation, inhibitors were removed by centrifugation at 1800 rpm for 5 min. The pellets were washed in an equal volume of 1×PBS and re-suspended in same volume of 0.1% saponin (in 1×PBS) for 3 min. Isolated parasites were pelleted at 2500 rpm for 5 min and washed twice in an equal volume of 1×PBS. The resulting parasite pellets were permeabilized by treatment in 20 μL of 1% Triton X-100 (in 1×PBS) for 5 min. Intraparasitic hemoglobin content was measured at 550 nm using a Nanodrop spectrophotometer, and folds increase in intra-parasite hemoglobin content was calculated relative to the E64-treated controls.

[5] = tested on: CQ-sensitive 3D7 strain of P. falciparum; experiment: SYBR green I-based parasite growth inhibition assay, 3D7 strain; assay type: cell-based, Plasmodium falciparum; conditions: for EC50: 72 h, read-out: EC50

COc1cc2c(cc1OC)C1(NCC2)C(=O)Nc2ccc(Cl)cc21 (centres unmarked) [Compound 8b]
CC50 ([1]; SW872, MTT): > 100 µM
cell viability ([1]; SW872, up to 100 μM compound concentration, 48 h): no significant decrease in cell viability
combination index (CI) ([2]; in combination with artemisinin): 1.440
combination index (CI) ([2]; in combination with chloroquine): 1.478
suppression of parasitemia ([3]; 3.0 mg/kg ip): 98%
suppressive ED50 ([3]; ip, 3 days, P. chabaudi-infected mice): 0.25 mg/kg
intraparasitic hemoglobin content / accumulation [4]: significantly higher; also recorded: accumulation of intra-parasitic hemoglobin
dose-response curve within the tested drug concentration range ([5]; Pf 3D7, 0.078 μM to 10 μM): complete sigmoidal dose-response curve
EC50 ([5]; Pf 3D7, 0.078 μM to 10 μM, listed as (±)-moxiquindole): 1.85 µM
EC50 ([5]; Pf 3D7, 0.078 μM to 10 μM): < 2 µM
parasite growth inhibition in primary assays ([5]; primary screening at 10 μM, Pf 3D7, 72 h): ~97%
